Read-outs that look alike come from different tables or passages of the source.
Assays:
[1] = system: Isolated guineα-pig trachea; assay: Bronchospasmolytic activity in vitro: isolated guinea-pig trachea (A.1.1); settings: Cavia porcellus
Protocol: 1.1. Isolated guineα-pig trachea:
(§1) The trachea is excised from freshly sacrificed guineα-pigs and transected in the transverse plane to give rings of tissue of ca. 2 mm. Individual rings are mounted vertically on stainless steel supports, one of which is fixed at the base of an organ bath, the other being attached to a tension transducer. The rings are bathed in modified Tyrode solution at 37° C. and gassed with O2 /CO2 (95:5, v/v). Rings prepared in this manner, preloaded with 1 g, generate spontaneous tone and, after a period of equilibration, relax on addition of spasmolytic drugs. Tension can be enhanced by addition of carbachol (10^-6 M) or histamine (10^-4 M). To ascertain spasmolytic activity, test substances are dissolved in physiological saline and added in increasing quantities to the organ bath at 5 min. intervals to provide a cumulative concentration-effect curve.

[2] = system: bombesin-induced bronchospasm; assay: Bronchodilator activity in vivo: inhibition of bombesin-induced bronchospasm (A.2.1); settings: Cavia porcellus, iv; anaesthetised guinea pigs; i.v. at the height of bombesin-induced bronchospasm; read-out: ED50, reversal of bombesin-induced bronchospasm
Protocol: 2.1. Inhibition of bronchospasm:
Guinea pigs are anaesthetised with pentobarbital (30 mg/kg i.p.) and phenobarbital (100 mg/kg i.p.) and ventilated via a tracheal cannula (10 ml/kg, 1 Hz). Ventilation is monitored either by a pressure transducer measuring air-flow (Konzett-Rossler method), or by a Fleisch flow transducer in line with the inspiratory circuit. When making measurements of flow, coincident pressure changes in the thorax are monitored directly via an intrathoracic trochar, permitting display of differential pressure relative to the trachea. From this information resistance and compliance are calculated at each inspiration.
Intravenous injection of bombesin (ca. […]) as a bolus, induces increased airways resistance Wilich is sustained over a period of several minutes. Capacity of test-substance to reverse response when administered i.v. at the height of bombesin-induced bronchospasm serves as a measure of efficacy in reversing established bronchospasm.

[3] = Level of activity of R- versus S-isomers in animal models; format: in vivo; settings: R-isomers of examples 22 and 24 compared with S-isomers of examples 23 and 25 respectively
Isolated human bronchus = assay: Bronchospasmolytic activity in vitro: isolated human bronchus (A.1.2); settings: read-out: EC50, relaxation of human bronchus rings
Protocol: as §1
1.2. Isolated human bronchus:
Rings of bronchus (ca. 2 mm depth) are dissected from samples of human lung, resected from patients with lung carcinoma but grossly free of disease. Activity is determined employing the methodology of example A.1.1.

| EC50 ([1]; basal tone, read-out: EC50, relaxation of tracheal rings, basal tone) [nM] | EC50 ([1]; in the presence of carbachol (10^-6 M), read-out: EC50, relaxation of tracheal rings, carbachol) [nM] | EC50 ([1]; in the presence of histamine (10^-4 M), read-out: EC50, relaxation of tracheal rings, histamine) [nM] | EC50 (Isolated human bronchus) [nM] | Structure (SMILES) | ED50 [2] [mg/kg] | level of activity in animal models [3] |
| --- | --- | --- | --- | --- | --- | --- |
| 860 | 19000 | 170 |  | COCCn1c(N[C@@H](CO)c2ccc(OC)c(OC)c2)nc2c1c(=O)n(C)c(=O)n2C [Example 22] | 0.03 to 0.09 | higher level of activity |
|  |  |  |  | COCCn1c(N[C@@H](COC)c2ccc(OC)c(OC)c2)nc2c1c(=O)n(C)c(=O)n2C [Example 24] |  | higher level of activity |
|  |  |  | 1200 | COCCn1c(NC(CO)c2ccc(OC)c(OC)c2)nc2c1c(=O)n(C)c(=O)n2C (stereo not shown) [Example 7] |  |  |
